Measured values published in patent US20040019092A1, “Non-peptide somatostatin receptor ligands” (priority 2001, published 2004).
Where “and” joins values, the source holds several entries; their conditions need not be identical. Equal values may be shown once.

Key:
[1] = Urinary excretion and metabolite patterns in blood and urine; format: in vivo, rat; conditions: for Urinary excretion of parent drug: underestimates (urine lost)
Experimental: Metabolite patters were determined in blood extracts and in urine. Blood was pooled from the 3 intravenously dosed rats of the pharmacokinetic study and from 3 additional rats treated in the same way. Urine was obtained from the animals of the pharmacokinetic study.
Between 0.3 and 0.6 mL of pooled diluted blood were spiked with 10-20 μg unlabeled compound 42-ch, extracted with 10 mL of methanol (HPLC grade, Rathburn) by sonication and centrifuged. The pellet was extracted once more in the same way. The two supernatants were combined and evaporated under reduced pressure at 35° C. on a rotary evaporator. The residue was transferred into a smaller vial by means of methanol and water, evaporated under a stream of nitrogen and taken up in 80 μl methanol and 320 μl water or in 120 μl methanol and 280 μl water by sonication. The suspension was centrifuged and a 300 μl aliquot of the supernatant was injected onto the HPLC column. The extraction yield of radioactivity was only 45±12% (mean ISD).
To urine samples, acetonitrile (˜5% v/v), TFA (to obtain a pH of ˜3) and unlabeled compound 42-ch (˜4 μg per volume analyzed) were added. The mixtures were centrifuged and 1-2 mL of supernatant were injected onto the HPLC column.
The chromatography was performed using HP 1090 liquid chromatograph (Hewlett-Packard). The radioactivity of the column eluate was measured by liquid scintillation counting either off-line or on-line using a Berthold LB 507A radioactivity monitor. The samples were chromatographed on a reversed-phase column (Nucleosil 100, C18AB, 250×4.6 mm, 5 μm particle size, Macherey-Nagel) protected by a corresponding 8×4 mm precolumn. The column temperature was 40° C. The components were eluted with a gradient of 0.02% v/v trifluoroacetic acid (TFA, Pierce) in water (mobile phase A, pH 2.8) versus acetonitrile (HPLC grade S, Rathburn; mobile phase B). The proportion of solvent B was kept at 5% up to 5 minutes after injection and was then increased in linear segments to 40% at 110 minutes and 100% at 120 minutes where it was kept for another 10 minutes. The total flow rate was 1 mL/min. The unlabeled parent drug, added as a retention time marker, was monitored by UV detection at 216 nm.

[2] = Unidirectional brain extraction (Brain Uptake Index), single intracarotid injection; format: in vivo, Wistar rats; conditions: rat, 5 s after intracarotid injection, Ringer buffer as vehicle
Experimental: The unidirectional influx for [^14C]-42 was measured by the brain sampling single injection technique in adult male Wistar rats (˜220 g) under anesthesia (ketamine 130 mg/kg i.m., xylazine 1.3 mg/kg i.m.) (Oldendorf, W. H. “Measurement of brain uptake of radiolabeled substances using tritiated water internal standard” Brain Res., 1970, 24, 372-376). A bolus of ˜220 μL 0.001 M HEPES-buffered Ringer's solution pH 7.4, or rat plasma, was rapidly injected into the common carotid artery. The bolus contained [^14C]-42 (68 μg/mL) together with tritiated water (25 μCi/mL); the amount of ethanol in the injectate was 1% (v/v). The animals were decapitated 5 seconds after the injection. […] The percentage BUI (Brain Uptake Index) was calculated as […]
The brain extraction ratio E was calculated from E=BUI*0.62, where 0.62 represents the brain extraction ratio of tritiated water (Pardridge, W. M. et al. “Absence of albumin receptor on brain capillaries in vivo or in vitro” Am. J. Physiol, 1985, 249, E264-E267). In order to quantify a possible sequestration of [^14C]-42 by the brain microvasculature, the brain hemispheres of 3 rats were submitted to capillary depletion (Triguero, D, et al. “Capillary depletion method for quantifying the blood-brain barrier transcytosis of circulating peptides and plasma proteins” J. Neurochem, 1990, 54, 1882-1888). […]

[3] = Plasma protein binding, equilibrium dialysis, human plasma; format: in vitro ADME; conditions: 50-5000 ng/mL, 37° C.
Experimental: In vitro blood distribution and plasma protein binding. For blood distribution studies, fresh, heparinized rat blood (n=3) was spiked with [^14C]-42 to achieve the final concentrations of 5, 50, 500 and 5000 ng/mL. After a 30-minutes incubation at 4° C., 22° C. and 37° C., the samples were centrifuged (1600×g, 10 minutes, at the incubation temperature) to get plasma. The fraction free of 42 in plasma of rat and human was determined by equilibrium dialysis. Phosphate buffer was spiked with [^14C]-42 (50, 500, 5000 ng/mL) and dialyzed versus blank rat and human plasma at 37° C. for 2 hours. The radioactivity was determined in spiked blood samples, in plasma obtained after centrifugation and in both compartments after dialysis.

- Urinary excretion of parent drug ([1]; 0-48 hours after single intravenous 1 mg/kg [^14C]-42, mean of 3 animals): 1.64 % of dose
- Urinary excretion of parent drug ([1]; 0-48 hours after single oral 10 mg/kg [^14C]-42, mean of 3 animals): 0.056 % of dose
- drug-related material in blood ([1]; rat blood extracts after intravenous dosing): mainly of unchanged drug
- unidirectional brain extraction (BUI experiments), Ringer buffer [2]: 41%
- fraction free in human plasma [3]: 15-23%
SMILES: N#Cc1cc(S(=O)(=O)N2C(=O)N(CCCCCN)C(=O)C2Cc2c[nH]c3ccccc23)ccc1Oc1ccc(N)cc1 (stereo not shown) [Compound 42]
- Urinary excretion of parent drug ([1]; 0-48 hours after single intravenous 1 mg/kg [^14C]-42, individual animals, 1 mg/kg): 0.96 % of dose and 1.98 % of dose and 1.97 % of dose
- Urinary excretion of parent drug ([1]; 0-48 hours after single oral 10 mg/kg [^14C]-42, individual animals, 10 mg/kg): 0.001 % of dose and 0.053 % of dose and 0.114 % of dose
